Assay results as given in patent US20250034216A1, “STEREOSELECTIVE COVALENT LIGANDS FOR ONCOGENIC AND IMMUNOLOGICAL PROTEINS” (The Scripps Research Institute, priority 2021, published 2025).

Tests used:
Test in all cases: IA-DTB cysteine engagement
Format in all cases: binding
NSUN2_C271 = biological target: T1, NSUN2_C271 (Homo sapiens, UniProt Q08J23); conditions: 22Rv1 cells, relative to DMSO; for % engagement NSUN2_271: 5 μM probe, 1 h (FIG. 5B); for % engagement NSUN2_C271: 20 μM probe, 1 h
T1 construct: endogenous in cells; host or cells: 22Rv1
T1 sequence (Q08J23 whole entry): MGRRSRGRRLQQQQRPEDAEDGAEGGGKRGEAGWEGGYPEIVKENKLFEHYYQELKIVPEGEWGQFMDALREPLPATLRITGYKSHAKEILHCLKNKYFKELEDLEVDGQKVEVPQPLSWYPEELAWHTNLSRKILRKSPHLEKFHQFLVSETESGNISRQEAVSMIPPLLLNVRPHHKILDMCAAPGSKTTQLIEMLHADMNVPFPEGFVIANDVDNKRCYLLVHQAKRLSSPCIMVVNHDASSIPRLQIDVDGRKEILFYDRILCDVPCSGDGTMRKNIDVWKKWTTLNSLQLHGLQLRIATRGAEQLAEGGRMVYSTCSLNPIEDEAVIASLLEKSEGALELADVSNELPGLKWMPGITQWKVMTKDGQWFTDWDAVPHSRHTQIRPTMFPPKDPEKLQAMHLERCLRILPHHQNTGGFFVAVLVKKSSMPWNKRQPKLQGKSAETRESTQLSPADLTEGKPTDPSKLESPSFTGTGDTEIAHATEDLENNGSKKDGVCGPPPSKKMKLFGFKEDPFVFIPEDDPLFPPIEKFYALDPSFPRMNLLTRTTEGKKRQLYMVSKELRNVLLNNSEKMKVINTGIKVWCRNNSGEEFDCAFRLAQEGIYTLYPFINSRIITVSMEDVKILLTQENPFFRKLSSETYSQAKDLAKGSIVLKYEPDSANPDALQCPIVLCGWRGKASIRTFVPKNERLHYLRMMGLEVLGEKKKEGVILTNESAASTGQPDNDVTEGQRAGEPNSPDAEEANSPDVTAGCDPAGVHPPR
Method: (§1) Sample preparation: Cells (adherent: 15 cm dishes, suspension: 2 million cells/mL) were treated with electrophilic probes in situ for indicated times and concentrations, washed with ice-cold PBS, and flash frozen in liquid nitrogen. Cell pellets were lysed by sonication (8 pulses, 40% power) in 500 μL ice-cold PBS supplemented with cOmplete protease inhibitors (1 tablet/10 mL of PBS). Whole cell lysates protein content was measured using a standard DC protein assay (Bio-Rad) and 500 μL (2 mg/mL protein content) were treated with 5 μL of 10 mM 1A-DTB (in DMSO) for 1 h at ambient temperature with occasional vortexing. Samples were methanol-chloroform precipitated with the addition of 500 μL ice-cold MeOH and 200 μL CHCl3, vortexed, and centrifuged (10 min, 10,000 g). Without disrupting the protein disk, both top and bottom layers were aspirated and the protein disk was washed with 1 mL ice-cold MeOH and centrifuged (10 min, 10,000 g). The pellets were allowed to air dry, and then re-suspended in 90 μL buffer (9 M urea, 10 mM DTT, 50 mM TEAB pH 8.5). Samples were reduced by heating at 65 C for 20 minutes and water bath sonicated as needed to resuspend the protein pellets, followed by alkylation via addition of 10 μL (500 mM) iodoacetamide and incubated at 37 C for 30 min with shaking. Samples were briefly centrifuged, and probe sonicated once more to ensure complete resuspension, and then diluted with 300 μL buffer (50 mM TEAB pH 8.5) to reach final concentration of 2 M urea. Trypsin (4 μL of 0.25 μg/μL in trypsin resuspension buffer with 25 mM CaCl2)) was added to each sample and digested at 37 C for 2 h to overnight. Digested samples were then diluted with 300 μL wash buffer (50 mM TEAB pH 8.5, 150 mM NaCl, 0.2% NP-40) containing streptavidin-agarose beads (50 μL of 50% slurry in wash buffer) and were rotated at room temperature for 2 hours. Enriched samples were pelleted by centrifugation (2000 g, 2 min) and transferred to BioSpin columns and washed (3×1 mL wash buffer, 3×1 mL PBS, 3×1 mL water). Enriched peptides were eluted by 300 μL 50% acetonitrile with 0.1% formic acid and eluate was evaporated to dryness via speedvac. IA-DTB labeled and enriched peptides were resuspended in 100 μL EPPS buffer (200 mM, pH 8.0) with 30% acetonitrile, vortexed, and water bath sonicated. Samples were TMT labeled with 3 μL of corresponding TMT tag (5 mg tag resuspended in 256 μL acetonitrile), vortexed, and incubated at room temperature for 1 hour. TMT labeling was quenched with the addition of hydroxylamine (5 μL 5% solution in H2O) and incubated for 15 minutes at room temperature. Samples were then acidified with 5 μL formic acid, combined and dried using a SpeedVac. Samples were desalted via Sep-Pak and then high pH fractionated.
(§2) Data processing: Cysteine engagement ratios (probe vs DMSO) were calculated for each peptide-spectra match by dividing each TMT reporter ion intensity by the average intensity for the channels corresponding to DMSO treatment. Peptide-spectra matches were then grouped based on protein ID and residue number (e.g., PSME1 C22), excluding peptides with summed reporter ion intensities for the DMSO channels <10,000, coefficient of variation for DMSO channels >0.5, and non-tryptic peptide sequences. TMT reporter ion intensities were normalized to the median summed signal intensity across channels.
(§3) Filtering of cysteine data: Replicates were combined based on cell line and treatment condition (probe, concentration, duration) by averaging cysteine engagement ratios across all experiments.

CENPC_C291 = biological target: T2, CENPC_C291 (Homo sapiens, UniProt Q03188); conditions: 22Rv1 cells, 20 μM probe, 1 h, relative to DMSO
T2 construct: endogenous in cells; host or cells: 22Rv1
T2 sequence (Q03188 whole entry): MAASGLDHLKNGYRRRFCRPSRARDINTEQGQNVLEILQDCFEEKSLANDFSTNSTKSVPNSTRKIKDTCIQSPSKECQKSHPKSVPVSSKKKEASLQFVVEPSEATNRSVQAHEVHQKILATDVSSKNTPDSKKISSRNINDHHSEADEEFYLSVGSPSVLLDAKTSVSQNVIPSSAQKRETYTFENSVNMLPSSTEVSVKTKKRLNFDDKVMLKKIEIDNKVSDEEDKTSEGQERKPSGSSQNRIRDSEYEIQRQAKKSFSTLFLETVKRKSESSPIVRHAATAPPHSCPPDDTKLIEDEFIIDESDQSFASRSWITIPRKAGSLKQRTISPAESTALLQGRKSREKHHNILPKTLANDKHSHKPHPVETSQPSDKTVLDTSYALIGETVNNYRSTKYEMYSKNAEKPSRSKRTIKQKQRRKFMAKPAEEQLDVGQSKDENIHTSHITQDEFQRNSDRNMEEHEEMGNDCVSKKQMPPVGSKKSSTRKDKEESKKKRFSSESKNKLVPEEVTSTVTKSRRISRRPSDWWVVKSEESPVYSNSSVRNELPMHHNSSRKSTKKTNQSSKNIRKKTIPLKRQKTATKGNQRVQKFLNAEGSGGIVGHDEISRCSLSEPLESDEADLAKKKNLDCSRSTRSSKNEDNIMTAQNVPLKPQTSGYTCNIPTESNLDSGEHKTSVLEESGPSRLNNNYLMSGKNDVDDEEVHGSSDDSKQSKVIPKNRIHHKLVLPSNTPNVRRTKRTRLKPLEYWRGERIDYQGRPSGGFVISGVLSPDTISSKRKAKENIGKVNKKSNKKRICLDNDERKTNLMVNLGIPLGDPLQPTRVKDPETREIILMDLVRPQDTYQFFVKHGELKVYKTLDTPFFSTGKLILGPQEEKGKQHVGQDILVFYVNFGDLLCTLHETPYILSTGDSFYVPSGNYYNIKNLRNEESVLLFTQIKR
Method: as §1, §2, §3

HARS2_C175 = biological target: T3, HARS2_C175 (Homo sapiens, UniProt P49590); conditions: 22Rv1 cells, 20 μM probe, 1 h, relative to DMSO
T3 construct: endogenous in cells; host or cells: 22Rv1
T3 sequence (P49590 34-506): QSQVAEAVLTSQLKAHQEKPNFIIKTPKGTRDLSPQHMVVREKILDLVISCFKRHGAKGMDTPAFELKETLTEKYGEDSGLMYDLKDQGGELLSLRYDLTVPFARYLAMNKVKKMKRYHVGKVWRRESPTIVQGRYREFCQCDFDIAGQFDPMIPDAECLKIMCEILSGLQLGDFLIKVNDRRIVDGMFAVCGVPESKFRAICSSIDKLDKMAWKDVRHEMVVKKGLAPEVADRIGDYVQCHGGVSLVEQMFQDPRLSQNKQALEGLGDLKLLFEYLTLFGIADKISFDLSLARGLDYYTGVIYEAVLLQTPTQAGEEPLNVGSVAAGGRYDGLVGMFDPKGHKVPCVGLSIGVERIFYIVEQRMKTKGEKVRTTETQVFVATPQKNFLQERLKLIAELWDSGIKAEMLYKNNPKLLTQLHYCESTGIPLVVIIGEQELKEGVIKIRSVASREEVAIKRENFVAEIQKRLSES
Method: as §1, §2, §3

IFT43_C58 = biological target: T4, IFT43_C58 (Homo sapiens, UniProt Q96FT9); conditions: 22Rv1 cells, 20 μM probe, 1 h, relative to DMSO
T4 construct: endogenous in cells; host or cells: 22Rv1
T4 sequence (Q96FT9 1-208): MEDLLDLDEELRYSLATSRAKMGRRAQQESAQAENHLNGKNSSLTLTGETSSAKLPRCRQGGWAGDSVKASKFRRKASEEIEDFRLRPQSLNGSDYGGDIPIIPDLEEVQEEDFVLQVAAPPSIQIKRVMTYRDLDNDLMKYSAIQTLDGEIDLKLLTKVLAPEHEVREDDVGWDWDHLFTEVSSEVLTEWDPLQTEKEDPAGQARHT
Method: as §1, §2, §3

STK11_C418 = biological target: T5, STK11_C418 (Homo sapiens, UniProt Q15831); conditions: 22Rv1 cells, 20 μM probe, 1 h, relative to DMSO
T5 construct: endogenous in cells; host or cells: 22Rv1
T5 sequence (Q15831 1-433): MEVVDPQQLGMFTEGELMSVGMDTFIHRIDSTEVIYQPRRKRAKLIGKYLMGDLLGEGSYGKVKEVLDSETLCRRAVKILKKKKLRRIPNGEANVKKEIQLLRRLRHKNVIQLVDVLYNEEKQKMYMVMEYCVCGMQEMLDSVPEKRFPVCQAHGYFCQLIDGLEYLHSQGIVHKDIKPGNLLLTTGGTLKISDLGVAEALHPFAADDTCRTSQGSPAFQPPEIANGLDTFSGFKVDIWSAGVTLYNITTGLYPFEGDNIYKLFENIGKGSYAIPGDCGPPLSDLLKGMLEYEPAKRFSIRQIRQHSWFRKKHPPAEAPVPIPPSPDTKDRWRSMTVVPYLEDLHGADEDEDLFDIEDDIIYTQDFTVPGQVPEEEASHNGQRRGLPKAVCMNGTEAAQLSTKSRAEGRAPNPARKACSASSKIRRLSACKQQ
Method: as §1, §2, §3

Q: For `CC#CC(=O)N1C[C@H](c2ccc(Br)cc2)[C@@H]1C(=O)Nc1cccc2cccnc12` [MY-45B, (2R,3S)-3-(4-bromophenyl)-1-(but-2-ynoyl)-N-(quinolin-8-yl)azetidine-2-carboxamide], which “% engagement NSUN2_271” value (NSUN2_C271) is on record?
A: −13.13%

Q: What does the source list for `C=CC(=O)N1C[C@H](c2ccc(Br)cc2)[C@H]1C(=O)Nc1cccc2cccnc12` [MY-3A, (2S,3S)-1-acryloyl-3-(4-bromophenyl)-N-(quinolin-8-yl)azetidine-2-carboxamide]?
A: % engagement CENPC_C291 (CENPC_C291): 28%; % engagement HARS2_C175 (HARS2_C175): 11.5%; % engagement IFT43_C58 (IFT43_C58): 17%; % engagement NSUN2_C271 (NSUN2_C271): −8.25%; % engagement STK11_C418 (STK11_C418): 38%

Q: What does the source list for `C=CC(=O)N1C[C@H](c2ccc(Br)cc2)[C@@H]1C(=O)Nc1cccc2cccnc12` [MY-1B, (2R,3S)-1-acryloyl-3-(4-bromophenyl)-N-(quinolin-8-yl)azetidine-2-carboxamide]?
A: % engagement CENPC_C291 (CENPC_C291): 7%; % engagement HARS2_C175 (HARS2_C175): 67%; % engagement IFT43_C58 (IFT43_C58): −17%; % engagement NSUN2_271 (NSUN2_C271): 94.50%; % engagement NSUN2_C271 (NSUN2_C271): 88.75%; % engagement STK11_C418 (STK11_C418): 66.5%

Q: For `C=CC(=O)N1C[C@H](c2ccc(Br)cc2)[C@H]1C(=O)Nc1cccc2cccnc12` [MY-3B, (2S,3S)-1-acryloyl-3-(4-bromophenyl)-N-(quinolin-8-yl)azetidine-2-carboxamide], which “% engagement CENPC_C291” value (CENPC_C291) is on record?
A: 82.5%

Q: And the “% engagement HARS2_C175” value (HARS2_C175)?
A: 44.5%

Q: And the “% engagement IFT43_C58” value (IFT43_C58)?
A: 71.5%

Q: What about the “% engagement NSUN2_C271” value (NSUN2_C271) of the same compound?
A: −11%

Q: What about the “% engagement STK11_C418” value (STK11_C418) of the same compound?
A: 61.5%

Q: Which results are given for `C=CC(=O)N1C[C@@H](c2ccc(Br)cc2)[C@H]1C(=O)Nc1cccc2cccnc12` [MY-1A, (2S,3R)-1-acryloyl-3-(4-bromophenyl)-N-(quinolin-8-yl)azetidine-2-carboxamide]?
A: % engagement CENPC_C291 (CENPC_C291): −1.5%; % engagement HARS2_C175 (HARS2_C175): 100%; % engagement IFT43_C58 (IFT43_C58): 28.5%; % engagement NSUN2_C271 (NSUN2_C271): 42.25%; % engagement STK11_C418 (STK11_C418): 83.5%
